Experimental data reported in ChEMBL document CHEMBL4680089, “Development of Allosteric Hydrazide-Containing Class I Histone Deacetylase Inhibitors for Use in Acute Myeloid Leukemia” (J Med Chem, 2016).
Calls of active or inactive are those of the source. The rule behind the calls is not given here.

Tests used:
[1] = test system: HL-60; test: Cytotoxicity against human HL-60 cells assessed as reduction in cell viability incubated for 48 hrs by Cell-titer-blue cell viability assay; format: functional, cell-based; details: HL-60, 48 h
[2] = Cytotoxicity against human PBMC assessed as reduction in cell viability incubated for 24 hrs by Cell-titer-blue cell viability assay relative to panobinostat
[3] = test system: RPMI-8226; test: Cytotoxicity against human RPMI-8226 cells assessed as reduction in cell viability incubated for 48 hrs by Cell-titer-blue cell viability assay; format: functional, cell-based; details: RPMI-8226, 48 h
[4] = Drug metabolism in human liver microsomes assessed as compound reduction in absence of UDP glucuronic acid incubated for 12 hrs at 37 degC by electrospray ionization liquid chromatography mass spectrometry; format: ADME, Microsome
[5] = Drug metabolism in human liver microsomes assessed as o-glucuronidated metabolite formation in absence of UDP glucuronic acid incubated for 12 hrs at 37 degC by electrospray ionization liquid chromatography mass spectrometry; format: ADME, Microsome
[6] = test system: HEK293; test: Cytotoxicity against HEK293 cells assessed as reduction in cell viability incubated for 48 hrs by Cell-titer-blue cell viability assay; format: cell-based; details: human, hek293, 48 h
[7] = test system: MOLM-14; test: Cytotoxicity against human MOLM-14 cells assessed as reduction in cell viability incubated for 48 hrs by Cell-titer-blue cell viability assay; format: functional, cell-based; details: MOLM-14, 48 h
[8] = target: T1, Protein deacetylase HDAC6 (Homo sapiens) (UniProt Q9UBN7); details: MV4-11, dose 100.0 nM, time 24.0 hrs
T1 sequence (whole entry): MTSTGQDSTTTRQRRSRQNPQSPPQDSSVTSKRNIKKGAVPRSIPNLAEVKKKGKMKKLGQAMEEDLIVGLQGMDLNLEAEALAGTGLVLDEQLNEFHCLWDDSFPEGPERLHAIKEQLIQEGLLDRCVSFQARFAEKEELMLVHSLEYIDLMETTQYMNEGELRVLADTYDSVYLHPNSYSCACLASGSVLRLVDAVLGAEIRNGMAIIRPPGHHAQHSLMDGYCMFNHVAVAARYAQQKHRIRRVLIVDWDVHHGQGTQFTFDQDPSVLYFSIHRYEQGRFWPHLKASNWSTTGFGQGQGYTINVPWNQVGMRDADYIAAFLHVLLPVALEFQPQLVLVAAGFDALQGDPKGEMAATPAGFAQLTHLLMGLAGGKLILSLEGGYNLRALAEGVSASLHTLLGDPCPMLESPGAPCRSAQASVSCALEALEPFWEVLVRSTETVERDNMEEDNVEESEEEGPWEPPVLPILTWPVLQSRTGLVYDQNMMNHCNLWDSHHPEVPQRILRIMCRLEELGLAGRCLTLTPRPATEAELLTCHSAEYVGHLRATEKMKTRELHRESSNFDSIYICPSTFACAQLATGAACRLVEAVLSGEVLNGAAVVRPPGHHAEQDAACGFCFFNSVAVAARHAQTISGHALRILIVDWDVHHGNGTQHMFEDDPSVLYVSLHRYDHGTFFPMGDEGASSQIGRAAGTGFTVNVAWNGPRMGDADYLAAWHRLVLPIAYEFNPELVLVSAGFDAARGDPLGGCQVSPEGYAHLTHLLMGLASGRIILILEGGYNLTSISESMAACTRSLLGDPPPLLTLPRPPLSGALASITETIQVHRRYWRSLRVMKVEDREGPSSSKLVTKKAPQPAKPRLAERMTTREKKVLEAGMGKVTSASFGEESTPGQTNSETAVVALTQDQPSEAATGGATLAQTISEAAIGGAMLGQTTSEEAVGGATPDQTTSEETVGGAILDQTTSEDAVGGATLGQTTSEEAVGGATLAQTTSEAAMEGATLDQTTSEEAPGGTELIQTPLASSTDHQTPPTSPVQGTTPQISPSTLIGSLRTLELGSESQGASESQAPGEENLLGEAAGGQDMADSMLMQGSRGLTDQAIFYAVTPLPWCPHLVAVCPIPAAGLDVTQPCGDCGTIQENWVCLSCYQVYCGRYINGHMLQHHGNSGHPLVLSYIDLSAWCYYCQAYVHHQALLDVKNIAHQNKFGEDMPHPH

[9] = test system: MV4-11; test: cells; format: functional, cell-based; details: Homo sapiens, MV4-11, 48 h
Description: Cytotoxicity against human MV4-11 cells assessed as reduction in cell viability incubated for 48 hrs by Cell-titer-blue cell viability assay

[10] = Drug metabolism in human liver microsomes assessed as o-glucuronidated metabolite formation in presence of UDP glucuronic acid incubated for 12 hrs at 37 degC by electrospray ionization liquid chromatography mass spectrometry; format: ADME, Microsome
[11] = test system: RS4-11; test: Cytotoxicity against human RS4-11 cells assessed as reduction in cell viability incubated for 48 hrs by Cell-titer-blue cell viability assay; format: functional, cell-based; details: RS4-11, 48 h
[12] = target: T2, Class 1 histone deacetylase (Homo sapiens) (UniProt Q13547+O15379+Q92769+Q9BY41); details: time 24.0 hrs
[13] = test system: K562; test: Cytotoxicity against human K562 cells assessed as reduction in cell viability incubated for 48 hrs by Cell-titer-blue cell viability assay; format: functional, cell-based; details: K562, 48 h
[14] = target: T2, Class 1 histone deacetylase (Homo sapiens); details: time 24.0 hrs; remark: listed apart in the source
[15] = target: Histone deacetylase 3 (Homo sapiens, UniProt O15379); test: Allosteric inhibition of C-terminal His-tagged recombinant human HDAC3 expressed in Sf9 cells pre-incubated for 2 hrs before acetylated lysine-aminomethyl coumarin-BOC addition and measured after 2 hrs by fluorescence based assay
[16] = Cytotoxicity against human PBMC assessed as reduction in cell viability at 10 nM incubated for 24 hrs by Cell-titer-blue cell viability assay; details: 0.01 µM
[17] = MV4-11, filed as negative allosteric modulator, dose 100.0 nM

T2 sequence (O15379 whole entry, looked up): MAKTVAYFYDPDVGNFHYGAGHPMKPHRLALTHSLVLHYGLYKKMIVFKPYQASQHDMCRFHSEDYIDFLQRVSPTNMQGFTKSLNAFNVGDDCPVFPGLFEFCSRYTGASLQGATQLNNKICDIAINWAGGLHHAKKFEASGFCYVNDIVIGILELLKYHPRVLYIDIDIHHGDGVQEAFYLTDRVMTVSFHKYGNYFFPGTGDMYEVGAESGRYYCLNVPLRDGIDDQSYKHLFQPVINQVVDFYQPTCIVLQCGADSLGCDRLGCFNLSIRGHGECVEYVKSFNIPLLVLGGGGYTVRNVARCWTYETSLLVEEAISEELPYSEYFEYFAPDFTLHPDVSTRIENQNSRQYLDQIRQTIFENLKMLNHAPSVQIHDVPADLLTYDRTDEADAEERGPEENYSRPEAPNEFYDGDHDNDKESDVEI
T2 sequence (Q13547 whole entry, looked up): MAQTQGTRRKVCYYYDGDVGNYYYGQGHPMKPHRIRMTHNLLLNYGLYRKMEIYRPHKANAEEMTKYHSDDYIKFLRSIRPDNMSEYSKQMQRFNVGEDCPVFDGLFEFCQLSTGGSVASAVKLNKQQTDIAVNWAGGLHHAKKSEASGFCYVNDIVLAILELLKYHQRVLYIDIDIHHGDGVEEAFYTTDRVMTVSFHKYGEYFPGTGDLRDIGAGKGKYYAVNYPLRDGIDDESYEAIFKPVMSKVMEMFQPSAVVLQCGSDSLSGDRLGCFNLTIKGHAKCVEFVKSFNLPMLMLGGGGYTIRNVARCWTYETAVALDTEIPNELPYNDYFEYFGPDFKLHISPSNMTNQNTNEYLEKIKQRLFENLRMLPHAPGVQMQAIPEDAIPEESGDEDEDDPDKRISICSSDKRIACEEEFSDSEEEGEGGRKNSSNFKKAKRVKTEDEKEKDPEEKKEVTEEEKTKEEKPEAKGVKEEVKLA
T2 sequence (Q92769 whole entry, looked up): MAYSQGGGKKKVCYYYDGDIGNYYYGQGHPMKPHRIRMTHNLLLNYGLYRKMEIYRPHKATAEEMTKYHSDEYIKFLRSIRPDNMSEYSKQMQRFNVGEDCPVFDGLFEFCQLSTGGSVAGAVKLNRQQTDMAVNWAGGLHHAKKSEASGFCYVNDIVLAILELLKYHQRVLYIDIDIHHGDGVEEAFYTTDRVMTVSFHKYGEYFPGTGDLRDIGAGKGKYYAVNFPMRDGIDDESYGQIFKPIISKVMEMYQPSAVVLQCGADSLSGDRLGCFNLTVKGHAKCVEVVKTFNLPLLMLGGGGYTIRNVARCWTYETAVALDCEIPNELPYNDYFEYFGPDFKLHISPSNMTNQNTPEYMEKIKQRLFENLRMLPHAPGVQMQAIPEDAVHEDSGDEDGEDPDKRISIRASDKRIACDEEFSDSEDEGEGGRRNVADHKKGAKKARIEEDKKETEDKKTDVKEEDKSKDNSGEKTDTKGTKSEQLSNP
T2 sequence (Q9BY41 whole entry, looked up): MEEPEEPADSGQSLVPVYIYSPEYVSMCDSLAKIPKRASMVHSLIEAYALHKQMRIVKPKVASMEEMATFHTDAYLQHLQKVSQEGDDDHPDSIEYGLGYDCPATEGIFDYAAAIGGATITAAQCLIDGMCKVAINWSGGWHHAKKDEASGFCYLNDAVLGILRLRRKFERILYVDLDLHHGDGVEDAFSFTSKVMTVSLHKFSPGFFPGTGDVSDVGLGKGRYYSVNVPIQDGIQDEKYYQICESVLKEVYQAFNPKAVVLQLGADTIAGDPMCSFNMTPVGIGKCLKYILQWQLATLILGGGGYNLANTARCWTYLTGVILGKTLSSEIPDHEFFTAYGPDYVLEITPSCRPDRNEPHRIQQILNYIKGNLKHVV
Histone deacetylase 3, sequence (O15379 whole entry): as the sequence (O15379 whole entry, looked up) above

Row | Compound | Drug metabolism [5] | Activity [6] | inhibition [8] | EC50 [9] [nM] | Drug metabolism [10] | inhibition [12, 17] | inhibition [14, 17] | IC50 [15] [nM] | also measured
1 | CCCNNC(=O)c1ccc(CNC(=O)/C=C/c2ccccc2)cc1 | Metabolite_Notdetected | Non-Toxic | inactive | 36.4 | Metabolite_Notdetected | Active | Active |  | EC50 [1]: > 10000 nM; Activity [2]: Non-Toxic; EC50 [3]: > 10000 nM; Drug metabolism [4]: Metabolite_Detected; EC50 [7]: 76.6 nM; EC50 [11]: 152 nM; EC50 [13]: 2160 nM
2 | O=C(CCCCCCC(=O)Nc1ccccc1)NO [VORINOSTAT] | Metabolite_Notdetected |  |  |  | Metabolite_Detected |  |  |  | 
3 | Nc1ccccc1NC(=O)c1ccc(CNC(=O)OCc2cccnc2)cc1 [ENTINOSTAT] |  |  |  | < 30 |  |  |  |  | 
4 | CCCNNC(=O)c1ccc(CNC(=O)c2ccccc2)cc1 | Metabolite_Notdetected | Non-Toxic | inactive |  | Metabolite_Notdetected | Active | Active |  | Activity [2]: Non-Toxic
5 | CC(C)NNC(=O)c1ccc(CNC(=O)c2ccccc2)cc1 |  |  |  |  |  |  |  | > 10000 | 
6 | CC/C=N/NC(=O)c1ccc(CNC(=O)c2ccccc2)cc1 |  |  |  |  |  |  |  | > 10000 | inhibition ([12]; MV4-11, dose 100.0 nM): inactive; inhibition ([14]; MV4-11, dose 100.0 nM): inactive
7 | CCCCNNC(=O)c1ccc(CNC(=O)c2ccccc2)cc1 | Metabolite_Notdetected | Non-Toxic | inactive |  | Metabolite_Notdetected | Active | Active |  | 
8 | Cc1[nH]c2ccccc2c1CCNCc1ccc(/C=C/C(=O)NO)cc1 [PANOBINOSTAT] |  |  |  | < 30 |  |  |  |  | Activity [16]: Toxic
9 | CCCCNNC(=O)c1cccc2ccccc12 |  |  |  |  |  |  |  | > 10000 | 
10 | C/C=C/CNNC(=O)c1ccc(CNC(=O)c2ccccc2)cc1 |  |  |  |  |  |  |  | 1550 | 
